Assay results reported in PMC4607367, “Gedunin and Azadiradione: Human Pancreatic Alpha-Amylase Inhibiting Limonoids from Neem (Azadirachta indica) as Anti-Diabetic Agents” (PLoS ONE, 2015).
“Also recorded” adds a separate entry of the source.

Tests used:
[1] = biological target: T1, Porcine pancreatic α-amylase (PPA) (Sus scrofa, UniProt P00690); assay: Porcine pancreatic α-amylase inhibition assay, chromogenic DNSA method (primary screening); format: biochemical; settings: for PPA inhibition (result in words): inhibitors 13.8–214.3 μM; for IC50: starch 1% w/v, pH 6.9, 37°C
T1 construct: purchased SRL, Mumbai, India
T1 sequence (P00690 16-511): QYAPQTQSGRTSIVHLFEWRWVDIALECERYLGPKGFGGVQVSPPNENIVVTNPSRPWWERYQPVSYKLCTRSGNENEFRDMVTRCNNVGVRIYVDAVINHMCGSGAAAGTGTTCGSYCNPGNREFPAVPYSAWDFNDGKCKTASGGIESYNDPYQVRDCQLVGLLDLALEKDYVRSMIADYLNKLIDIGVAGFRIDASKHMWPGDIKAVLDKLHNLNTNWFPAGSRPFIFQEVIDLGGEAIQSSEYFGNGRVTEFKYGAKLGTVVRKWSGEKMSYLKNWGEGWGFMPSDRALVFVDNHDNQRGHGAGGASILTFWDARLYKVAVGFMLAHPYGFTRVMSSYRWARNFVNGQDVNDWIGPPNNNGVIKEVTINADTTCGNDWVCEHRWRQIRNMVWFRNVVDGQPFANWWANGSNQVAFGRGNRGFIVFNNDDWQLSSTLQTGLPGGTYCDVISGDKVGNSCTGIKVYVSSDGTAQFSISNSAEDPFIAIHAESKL
Method: The inhibition assay was performed using the chromogenic DNSA method. PPA was used for preliminary screening of α-amylase inhibitors. […] Moreover a high degree gene sequence similarity (~ 90%) exists between human salivary α-amylase (HSA) and PPA as reported by (Buisson et al 1987). Brayer et al (1995) have reported 97% primary sequence similarity between human salivary and human pancreatic α-amylases and a 70% structural similarity between PPA and HPA [11]. Thus, a high degree of similarity between PPA and HPA allows us to use it as the enzyme for screening inhibitors.
In brief, the total assay mixture consisting of 0.02 M sodium phosphate buffer, pH6.9, (containing 6 mM NaCl), 0.2–0.25 U of PPA and inhibitors (13.8–214.3 μM) in DMSO was incubated at 37°C for 10 min. After pre-incubation, the substrate starch (1%, w/v) solution was added to the reaction mixture and further incubated for 15 min. The control PPA (0.21 U) without any inhibitor represented 100% enzyme activity. One unit of enzyme activity is defined as the amount of enzyme required to release one micromole of maltose from starch/maltopentaose per min under the assay conditions. The other quantifiers calculated were: % Relative enzyme activity = (enzyme activity of test/enzyme activity of control)*100. % inhibition = (100 − % relative enzyme activity).
The IC50 values were determined from plots of percent inhibition versus inhibitor concentration and calculated by logarithmic regression analysis. To eliminate the absorbance produced by the compound, appropriate controls were included. The known PPA/HPA inhibitor acarbose was used as a positive control at a concentration range of 10–50 μM.

[2] = test system: PPA; parameters: method as in PMID 22975503; settings: ref [25],[26], cited from earlier work; for IC50: value in brackets
[3] = biological target: HPA; parameters: method as in PMID 15736945; settings: ref [60], cited from earlier work
[4] = biological target: T2, secreted pancreatic α-amylase of AR42J cells (Rattus norvegicus, UniProt P00689); assay: Bioactivity: inhibition of secreted pancreatic α-amylase in dexamethasone-induced AR42J cells, incl. starch load test (DNSA); format: cell-based; settings: for Amylase inhibition at the cytotoxic IC50 concentration: 24 h, at 11.1, 13.4 and 4.1 μM respectively
T2 construct: host or cells: AR42J rat pancreatic acinar cells, induced with 10 nM dexamethasone
T2 sequence (P00689 16-508): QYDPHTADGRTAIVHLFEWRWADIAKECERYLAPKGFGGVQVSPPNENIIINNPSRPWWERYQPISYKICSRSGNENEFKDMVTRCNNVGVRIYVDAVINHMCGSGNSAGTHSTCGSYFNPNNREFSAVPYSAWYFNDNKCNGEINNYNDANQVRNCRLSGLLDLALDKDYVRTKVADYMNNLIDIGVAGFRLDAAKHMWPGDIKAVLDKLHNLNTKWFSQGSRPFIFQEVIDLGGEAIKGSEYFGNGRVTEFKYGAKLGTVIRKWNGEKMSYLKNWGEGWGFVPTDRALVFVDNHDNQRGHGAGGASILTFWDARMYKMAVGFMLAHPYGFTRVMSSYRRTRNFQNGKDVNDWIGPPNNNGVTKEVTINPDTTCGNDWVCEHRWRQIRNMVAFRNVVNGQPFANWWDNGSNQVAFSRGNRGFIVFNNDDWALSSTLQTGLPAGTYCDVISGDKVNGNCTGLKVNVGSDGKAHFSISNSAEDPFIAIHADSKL
From the text: Appropriate medium and DMSO controls were simultaneously set up.

[5] = Cytotoxicity in AR42J cell line (MTT); settings: rat, AR42J pancreatic acinar cells
Method: (§1) Cells were seeded at 2×10^4 cells well^-1 onto 96 wells culture dish. […] Appropriate medium and DMSO controls were simultaneously set up. […] At the end of 24 h incubation period the culture media was removed from the samples and fresh culture media (100 μl) containing 20 μl of MTT tetrazolium bromide (5 mg ml^-1) added and incubated for 3 h at 37°C. Metabolically active cells reduce MTT to insoluble purple formazan dye crystals, which were dissolved by addition of 300 μl DMSO solution at the end of the incubation period and quantitated at 550 nm [34].

[6] = test system: AR42J rat pancreatic acinar cells; assay: Cytotoxicity in AR42J cell line (MTT); settings: AR42J
Method: as §1

[7] = biological target: T3, Human pancreatic α-amylase (HPA) (Homo sapiens, UniProt P04746); assay: Human pancreatic α-amylase inhibition and stoichiometry (DNSA); format: biochemical
T3 construct: purchased Sigma Aldrich, USA
T3 sequence (P04746 16-511): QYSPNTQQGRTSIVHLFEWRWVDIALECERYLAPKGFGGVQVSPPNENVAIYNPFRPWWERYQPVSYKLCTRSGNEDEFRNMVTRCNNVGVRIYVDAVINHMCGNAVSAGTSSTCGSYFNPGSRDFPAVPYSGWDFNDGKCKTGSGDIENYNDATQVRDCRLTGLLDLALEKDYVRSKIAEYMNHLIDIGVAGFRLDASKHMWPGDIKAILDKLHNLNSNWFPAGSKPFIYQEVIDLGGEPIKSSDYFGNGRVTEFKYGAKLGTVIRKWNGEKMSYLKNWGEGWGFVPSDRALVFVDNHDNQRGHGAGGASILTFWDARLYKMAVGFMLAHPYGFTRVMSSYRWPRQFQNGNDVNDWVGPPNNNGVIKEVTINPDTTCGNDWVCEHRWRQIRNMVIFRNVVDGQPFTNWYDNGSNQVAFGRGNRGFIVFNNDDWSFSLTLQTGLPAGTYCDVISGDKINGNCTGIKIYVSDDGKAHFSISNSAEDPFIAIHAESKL
From the text: The control HPA (0.25 U) without inhibitors represented 100% enzyme activity.

[8] = biological target: T3, Human pancreatic α-amylase (HPA); assay: HPA inhibition kinetics (Michaelis-Menten, Lineweaver-Burk, secondary plots); format: biochemical
Method: The mode of inhibition of HPA by the lead inhibitors azadiradione and gedunin were determined using Michaelis-Menton and Lineweaver-Burk equations. Starch (1–5mg ml^-1) and maltopentaose (0.05–0.4mM) were incubated with inhibitors-HPA for 10 and 2.5 min, respectively and the residual enzyme activity determined by DNSA method for starch and Nelson-Somogyi’s method for maltopentaose.The inhibitor constants(K i) were determined on the basis of mode of inhibition.

[9] = biological target: T3, Human pancreatic α-amylase (HPA); assay: Ligand binding to HPA by fluorescence quenching titration, thermodynamic parameters
Method: Ligand binding studies using fluorescence measurements of HPA were carried as described in our earlier report. […] Non-linear and linear regression analyses were used to analyze the data.
The thermodynamic parameters, association constants (K a), dissociation constant (K d) and Gibbs free energy (ΔG°) of binding for azadiradione and gedunin were determined at various temperatures 25°C to 60°C by fluorescence quenching studies.

[10] = linear van't Hoff plot, 298–333 K

## CC=C(C)C(=O)OC1CC(O)C23COC(C(=O)OC)C2C(C)(C24OC2(C)C2CC4OC4OC=CC42O)C(O)C2OCC1(C(=O)OC)C23 (centres unmarked) [azadirachtin B]
[1]
  PPA inhibition (result in words): No inhibition; also recorded: no bioactivity

## CC(=O)O[C@@H]1C[C@H]2C(C)(C)C(=O)C=C[C@]2(C)[C@H]2CC[C@]3(C)C(=CC[C@H]3c3ccoc3)[C@@]21C [azadirone]
[1]
  PPA inhibition (result in words): No inhibition; also recorded: no activity was observed

## C/C=C(\C)C(=O)O[C@H]1C[C@@H](OC(C)=O)[C@@]2(C(=O)OC)CO[C@H]3[C@@H](O)[C@@](C)([C@]45O[C@@]4(C)[C@@H]4C[C@H]5O[C@@H]5OC=C[C@@]54O)[C@H]4[C@]1(CO[C@]4(O)C(=O)OC)[C@@H]32 [azadirachtin A]
[1]
  PPA inhibition (result in words): No inhibition; also recorded: no bioactivity

## COC(=O)C[C@H]1[C@]2(C)C3=C(C)[C@H](c4ccoc4)C[C@H]3O[C@@H]2[C@H](OC(C)=O)[C@@H]2[C@]1(C)C(=O)C=C[C@@]2(C)C(=O)OC [nimbin]
[1]
  PPA inhibition (result in words): No inhibition; also recorded: no bioactivity

## CC(=O)O[C@@H]1C[C@H](OC(=O)C=C(C)C)[C@@]2(C)[C@H]3[C@@H](OC[C@]13C)[C@@H](O)[C@@]1(C)C3=CC[C@@H]([C@@H]4COC(=O)C4)[C@]3(C)CC[C@@H]12 [azadirachtolide]
[2]
  IC50 with PPA: 55.8 µg/mL
  IC50: 94.1 µM

## C[C@H]1O[C@H](O[C@H]2[C@H](O)[C@@H](O)[C@@H](O[C@H]3[C@H](O)[C@@H](O)C(O)O[C@@H]3CO)O[C@@H]2CO)[C@H](O)[C@@H](O)[C@@H]1N[C@H]1C=C(CO)[C@@H](O)[C@H](O)[C@H]1O (some centres unmarked) [Acarbose, acarbose]
[3]; 2-chloro-4-nitrophenyl-α-maltotrioside as substrate
  Ki: 22 µM
[3]
  Mode of HPA inhibition: noncompetitive

## CC(=O)O[C@@H]1C[C@H]2C(C)(C)C(=O)C=C[C@]2(C)[C@H]2CC[C@@]3(C)[C@H](c4ccoc4)C(=O)[C@H]4O[C@]43[C@@]21C [epoxyazadiradione]
[1]
  IC50: 100 µM
[4]; AR42J
  Amylase inhibition at the cytotoxic IC50 concentration: 53.2%
[4]; AR-42J, read-out: Pancreatic (secreted) α-amylase inhibition
  inhibition at 1.7 µM: 31.8%
[5]
  IC50 at 24 h: 4.1 µM
[6]; 1.7 μM
  Cell death: 2.7%

## CC(C)=CC(=O)O[C@H]1C[C@@H](O)[C@@]2(C)CO[C@H]3[C@@H](O)[C@@]4(C)C5=CC[C@@H](c6ccoc6)[C@]5(C)CC[C@@H]4[C@]1(C)[C@@H]32 [meliacinolin]
[2]
  IC50 with PPA: 46.74 µg/mL
  IC50: 91.6 µM

## CC(=O)O[C@@H]1C[C@H]2C(C)(C)C(=O)C=C[C@]2(C)[C@H]2CC[C@@]3(C)[C@H](c4ccoc4)OC(=O)[C@H]4O[C@]43[C@@]21C [gedunin]
[1]
  IC50: 72.2 µM
[4]; AR42J, 0.5% (w/v) starch, up to two hours
  Secreted amylase inhibition in starch load test: 31.7%
[4]; AR42J
  Amylase inhibition at the cytotoxic IC50 concentration: 69.2%
[4]; AR-42J, AR42J, 3.3 μM
  inhibition at 3.3 µM: 53.4%
[7]; percentage inhibition versus molar ratio of HPA and inhibitor, HPA 14.85 μM
  Stoichiometry of HPA inactivation: 0.68
[7]; starch substrate, sigmoidal fit
  IC50: 68.4 µM
[8]; maltopentaose as substrate, secondary plots
  Ki: 18.6 µM
[8]; starch as substrate, secondary plots
  Apparent K i ′: 37.4 µM
[8]; substrates starch and maltopentaose, Lineweaver-Burk
  Mode of HPA inhibition: mixed
[9]; 298 K
  -ΔG°: 21.16 k J mol^-1
  K a: 5100 M⁻¹
  Kd: 200 ± 9 µM
[9]; 303 K
  -ΔG°: 20.57 k J mol^-1
  K a: 3500 M⁻¹
  Kd: 300 ± 3 µM
[9]; 308 K
  -ΔG°: 16.4 k J mol^-1
  K a: 600 M⁻¹
  Kd: 1600 ± 1 µM
[9]; 313 K
  -ΔG°: 12.4 k J mol^-1
  K a: 120 M⁻¹
  Kd: 8300 ± 50 µM
[9]; 323K
  -ΔG°: 11.8 k J mol^-1
  K a: 80 M⁻¹
  Kd: 12200 ± 600 µM
[9]; 333K
  -ΔG°: 7.4 k J mol^-1
  K a: 10 M⁻¹
  Kd: 67200 ± 800 µM
[9]; 350 nm, azadiradione 3.9–118 μM, gedunin 2.0–51.86 μM
  Maximal quenching of intrinsic HPA fluorescence: 19%
[9]; calculated from binding constants, maximal affinity at 298 K
  Maximum ΔG° of binding: -5.057 kcal/mol
[9]; [10]
  Enthalpy (ΔHvH): -33.44 kcal/mol
  Entropy (-ΔS): 397.84 J mol^-1K^-1
[5]
  IC50 at 24 h: 13.4 µM
[6]; 3.3 μM
  Cell death: 8.6%
[6]; azadiradione 3.5 μM, gedunin 3.3 μM (Fig 3)
  Cell morphology versus controls: no morphological change

## C/C=C(/C)C(=O)O[C@H]1C[C@@H](OC(C)=O)[C@@]2(C)CO[C@H]3[C@H]4O[C@@H]5C[C@@H](c6ccoc6)C(C)=C5[C@@]4(C)[C@H](CC(=O)OC)[C@]1(C)[C@@H]32 [salannin]
[1]
  PPA inhibition (result in words): No inhibition; also recorded: no bioactivity
